This is an account of results in patent US6420416B2, “Method of treating epilepsy” (Daiichi Pharmaceutical Co., Ltd., priority 2000, dated 2002).

For this assay, the system named is rats subjected to a central fluid percussion injury. Kind of assay: Morris water maze after central fluid percussion injury (traumatic brain injury model). It is filed as in vivo, rat. How it is done: As shown in the graph, administration of nefiracetam at 3 mg/kg and 9 mg/kg were tested against a control group treated only with the pharmacological carrier ([…]). The rats were subjected to a central fluid percussion injury, which is a typical animal model for traumatic brain injury. Beginning one day after the injury, the rats were subjected to daily oral drug administrations at the 3 and 9 mg/kg dosage levels. The administration solutions contained the nefiracetam in […] at a concentration sufficient to provide the required dosage level in a single 1 ml/kg dosage of solution. The rats were then tested in the Morris water maze on days 11-15 after injury. On the days that the rats were tested, the drug was administered 15 minutes prior to testing. […] The improvement seen at the 9 mg/kg dosage correlates to a reduction in the cognitive deficit by 55% compared to the control.

SMILES strings stand for the structures.

`Cc1cccc(C)c1NC(=O)CN1CCCC1=O` [nefiracetam, N-(2,6-dimethyl-phenyl)-2(2-oxo-1-pyrrolidinyl)acetamide]: the “effectiveness in the water maze” value (3 mg/kg daily oral, days 11-15 after injury) is “not significantly effective”. For the same compound, where the note is “9 mg/kg daily oral from one day after injury, Morris water maze on days 11-15 after injury, drug 15 minutes prior to testing”, the “reduction in the cognitive deficit compared to the control” value worked out at 55%. In addition, the “improvement in brain function as measured by performance in the water maze” value (9 mg/kg daily oral, compared to the control and the 3 mg/kg dosage level, days 11-15 after injury) is recorded as “significant improvement”.
